Data set [1] in a line: circular dichroism. The note with it: 10 mM sodium phosphate; pH 7.2; 25 °C; 250 uM.
Data set [2] in a line: Two-component bis-thiol stapling with 2,3-dibromomaleimide (200 uM), TCEP (100 uM); thioether formation followed at 395 nm. As to conditions: the molecule shown is the open-chain precursor, 50 mM aq. phosphate buffer pH 6.0, 0.1 mM, 20.0 °C, 1.0 h.
Data set [3] in a line: Two-component i,i+4 bis-thiol stapling: TCEP (1.1 eq) reduction for 1 h, then 2,3-dibromomaleimide (1.1 eq) for 1 h; two S-C(maleimide) thioether bonds formed. The note with it: the molecule shown is the open-chain precursor, MeCN/50 mM aq. ammonium acetate pH 7.4 (1:1), 3.3 mM, 14 steps.

The record followed here is paper PMC8650577.

*1 amine or outer side, *2 acyl side, *3 side chain or, on linkers, in order; H or OH if unused. Where a SMILES comes first, the peptide text is derived from it. Bridges are numbered along the chain shown (N, C = ends). [ ]: non-standard residue; d: D form. Maleimide(3,4-diyl) = O=C1NC(=O)C([*:2])=C1[*:1]; hCys = N[C@@H](CCS)C(=O)O

Turning to `CC(=O)N[C@@H]1CSC2=C(SC[C@@H](C(N)=O)NC(=O)[C@H](C)NC(=O)[C@H](C)NC(=O)[C@H](C)NC1=O)C(=O)NC2=O`, the helicity in data set [1] was determined as 28 rel %.

For `CC(=O)N[C@@H]1CSC2=C(SC[C@H](C(N)=O)NC(=O)[C@H](C)NC(=O)[C@H](C)NC(=O)[C@H](C)NC1=O)C(=O)NC2=O`, the helicity in data set [1] was 13 rel %.

Compound `CC(=O)N[C@H]1CSC2=C(SC[C@@H](C(N)=O)NC(=O)[C@H](C)NC(=O)[C@H](C)NC(=O)[C@H](C)NC1=O)C(=O)NC2=O` came in with a helicity in data set [1] of 25 rel %.

Consider `CC(=O)N[C@H]1CSC2=C(SC[C@H](C(N)=O)NC(=O)[C@H](C)NC(=O)[C@H](C)NC(=O)[C@H](C)NC1=O)C(=O)NC2=O`, for which the helicity in data set [1] worked out at 17 rel %.

In turn, `CC(=O)N[C@H]1CSC2=C(SCC[C@@H](C(N)=O)NC(=O)[C@H](C)NC(=O)[C@H](C)NC(=O)[C@H](C)NC1=O)C(=O)NC2=O` (Ac-CAAA[hCys]-NH2; linker 1-5 via Maleimide(3,4-diyl)) came in with a helicity in data set [1] of 48 rel %.

In turn, `CC(=O)N[C@H]1CCSC2=C(SC[C@@H](C(N)=O)NC(=O)[C@H](C)NC(=O)[C@H](C)NC(=O)[C@H](C)NC1=O)C(=O)NC2=O` (Ac-[hCys]AAAC-NH2; linker 1-5 via Maleimide(3,4-diyl)) yielded a helicity in data set [1] of 11 rel %.

As to `CC(=O)N[C@H]1CCSC2=C(SCC[C@@H](C(N)=O)NC(=O)[C@H](C)NC(=O)[C@H](C)NC(=O)[C@H](C)NC1=O)C(=O)NC2=O` (Ac-[hCys]AAA[hCys]-NH2; linker 1-5 via Maleimide(3,4-diyl)), the helicity in data set [1] turned out to be 13 rel %.

`CC(=O)N[C@@H](CSC1=C(Br)C(=O)NC1=O)C(=O)N[C@@H](C)C(=O)N[C@@H](C)C(=O)N[C@@H](C)C(=O)N[C@@H](CS)C(N)=O` [Ac-Cys-Ala-Ala-Ala-Cys-NH2] had a ring closure, halflife in data set [2] (19-membered ring) of 8 min. The same compound gave a ring closure, overall yield in data set [3] (19-membered ring) of 21%.

As for `CC(=O)N[C@@H](CSC1=C(Br)C(=O)NC1=O)C(=O)N[C@@H](C)C(=O)N[C@@H](C)C(=O)N[C@@H](C)C(=O)N[C@H](CS)C(N)=O` [Ac-Cys-Ala-Ala-Ala-D-Cys-NH2], the ring closure, halflife in data set [2] (19-membered ring) turned out to be 8 min. For the same compound, the ring closure, overall yield in data set [3] (19-membered ring) is 21%.

`CC(=O)N[C@@H](CSC1=C(Br)C(=O)NC1=O)C(=O)N[C@@H](C)C(=O)N[C@@H](C)C(=O)N[C@@H](C)C(=O)N[C@@H](CCS)C(N)=O` [Ac-Cys-Ala-Ala-Ala-hCys-NH2] returned a ring closure, halflife in data set [2] (20-membered ring) of 13 min. This compound also registered a ring closure, overall yield in data set [3] (20-membered ring) of 4%.

Consider `CC(=O)N[C@H](CSC1=C(Br)C(=O)NC1=O)C(=O)N[C@@H](C)C(=O)N[C@@H](C)C(=O)N[C@@H](C)C(=O)N[C@@H](CS)C(N)=O` [Ac-D-Cys-Ala-Ala-Ala-Cys-NH2], for which the ring closure, halflife in data set [2] (19-membered ring) was determined as 8 min. In data set [3] (19-membered ring), this compound came in with a ring closure, overall yield of 7%.

In the case of `CC(=O)N[C@H](CSC1=C(Br)C(=O)NC1=O)C(=O)N[C@@H](C)C(=O)N[C@@H](C)C(=O)N[C@@H](C)C(=O)N[C@H](CS)C(N)=O` [Ac-D-Cys-Ala-Ala-Ala-D-Cys-NH2], in data set [2] (19-membered ring), the ring closure, halflife amounted to 10 min. In data set [3] (19-membered ring), this compound displayed a ring closure, overall yield of 11%.

`CC(=O)N[C@@H](CCSC1=C(Br)C(=O)NC1=O)C(=O)N[C@@H](C)C(=O)N[C@@H](C)C(=O)N[C@@H](C)C(=O)N[C@@H](CS)C(N)=O` [Ac-hCys-Ala-Ala-Ala-Cys-NH2] came in with a ring closure, halflife in data set [2] (20-membered ring) of 11 min. In addition, the ring closure, overall yield in data set [3] (20-membered ring) came to 18%.

As for `CC(=O)N[C@@H](CCSC1=C(Br)C(=O)NC1=O)C(=O)N[C@@H](C)C(=O)N[C@@H](C)C(=O)N[C@@H](C)C(=O)N[C@@H](CCS)C(N)=O` [Ac-hCys-Ala-Ala-Ala-hCys-NH2], the ring closure, halflife in data set [2] (21-membered ring) came out at 9 min. Further, in data set [3] (21-membered ring), the ring closure, overall yield was 17%.
